Measurements as given in ChEMBL document CHEMBL6153114, “Property-Based Design of Xanthine Derivatives as Potent and Orally Available TRPC4/5 Inhibitors for Depression and Anxiety” (J Med Chem, 2025).

Tests used:
[1] = in vivo; details: ICR, mouse, plasma, po, 10 mg/kg
[2] = in vivo; details: ICR, mouse, plasma, po, 10 mg/kg; remark: listed apart in the source
[3] = in vitro; details: human, liver microsomes
[4] = in vitro; details: rat, liver microsomes
[5] = in vitro; details: mouse, liver microsomes

half-life at 1 h, 1 µM [3] [min]	half-life at 1 h, 1 µM [4] [min]	half-life at 1 h, 1 µM [5] [min]	Structure (SMILES)	concentration at 1 h [1] [ng/mL]	concentration at 4 h [2] [ng/mL]
141	40	115	Cn1c(=O)n(CCCO)c(=O)c2c1cc(/C=C/c1ccc(Cl)cc1)n2Cc1ccc(Cl)cc1	–	–
12	1	4	Cn1c(=O)n(CCCO)c(=O)c2c1cc(C1CC1C1CCCC1)n2Cc1ccc(Cl)cc1 (stereo unspecified)	–	–

Structure (SMILES)	half-life at 1 h, 1 µM [3] [min]	half-life at 1 h, 1 µM [4] [min]	half-life at 1 h, 1 µM [5] [min]	concentration at 1 h [1] [ng/mL]	concentration at 4 h [2] [ng/mL]
Cn1c(=O)n(CCCO)c(=O)c2c1nc(Oc1cccc(Cl)c1)n2Cc1ccc(Cl)cc1	117	4	12	802	398
